Reference: patent US7947733B2, “Phosphorylated pyrone analogs and methods” (Limerick BioPharma, priority 2007, dated 2011)
Several values for one entry are separate records, joined by “and”; a condition that tells them apart may be missing. Equal entries are not always repeated.

System: rats
Assay: Blood glucose levels in rats co-administered with quercetin-3′-O-phosphate and tacrolimus
Assay type: in vivo, rat
Settings: for Blood glucose, Mean change from Prograf ® control / Blood glucose, Mean change from Day 1: Q-Phosphate 114 mg/kg + Prograf 0.5 mg/kg i.p.; for Blood glucose, Mean: Q-Phosphate 114 mg/kg i.p. Day 11 to Day 25 + Prograf 0.5 mg/kg i.p., 5 rats; for Blood glucose, individual rats: Q-Phosphate 114 mg/kg i.p. once daily Day 11 to Day 25 + Prograf 0.5 mg/kg i.p. Day 1 to Day 25
Description: One set of 5 rats is treated from day 1 to day 25 with inert vehicle 2 intraperitoneally and treated from day 11 to day 25 with inert vehicle 1 intraperitoneally. […] A third set 5 of rats is treated from day 1 to day 25 with tacrolimus (Prograf®) intraperitoneally at 0.5 mg/kg, and treated from day 11 to day 25 intraperitoneally with quercetin-3′-O-phosphate (Q-Phosphate) at 114 mg/kg. The blood glucose level in the rats is measured on days 1, 10, 15, 20, and 25.

Q: Which results are given for `O=c1c(O)c(-c2ccc(O)c(OP(=O)(O)O)c2)oc2cc(O)cc(O)c12` [Quercetin-3′-O-phosphate]?
A: Blood glucose, Mean change from Prograf ® control (Day 1): +0.02 g/l; Blood glucose, Mean (Day 1): 1.29 g/L; Blood glucose, individual rats (Day 1): 1.18 g/L and 1.19 g/L and 1.41 g/L and 1.36 g/L and 1.30 g/L; Blood glucose, Mean change from Day 1 (Day 10): +0.65 g/l; Blood glucose, Mean change from Prograf ® control (Day 10): +0.45 g/l; Blood glucose, Mean (Day 10): 1.94 g/L; Blood glucose, individual rats (Day 10): 1.50 g/L and 2.41 g/L and 2.19 g/L and 1.51 g/L and 2.10 g/L; Blood glucose, Mean change from Day 1 (Day 15): +0.99 g/l; Blood glucose, Mean change from Prograf ® control (Day 15): -0.26 g/L; Blood glucose, Mean (Day 15): 2.28 g/L; Blood glucose, individual rats (Day 15): 2.07 g/L and 2.90 g/L and 3.16 g/L and 1.83 g/L and 1.42 g/L; Blood glucose, Mean change from Day 1 (Day 20): +1.55 g/l; Blood glucose, Mean change from Prograf ® control (Day 20): -0.09 g/L; Blood glucose, Mean (Day 20): 2.84 g/L; Blood glucose, individual rats (Day 20): 1.99 g/L and 3.28 g/L and 3.67 g/L and 3.58 g/L and 1.67 g/L; Blood glucose, Mean change from Day 1 (Day 25): +0.87 g/l; Blood glucose, Mean change from Prograf ® control (Day 25): -0.39 g/L; Blood glucose, Mean (Day 25): 2.16 g/L; Blood glucose, individual rats (Day 25): 2.34 g/L and 2.54 g/L and 2.04 g/L and 2.67 g/L and 1.23 g/L; effect on tacrolimus induced hyperglycemia (rats, Q-Phosphate 114 mg/kg i.p. with tacrolimus 0.5 mg/kg): can attenuate tacrolimus induced hyperglycemia
